We go through four compounds from patent publication US10744084B2, “Non-specific delayed-type hypersensitivity response to treat herpes simplex virus infection” (Squarex, LLC, priority 2007, dated 2020).

The subject of test [1] is warts. The following applies: intralesional injection together with antigens; differences not statistically significant; cited from earlier work.
Test [2] relates to herpes labialis. Put plainly: Treatment of herpes labialis by squaric acid dibutyl ester (thirty patients, subject diaries). The following applies: sensitizing dose 2% SADBE in DMSO, then two treatments on lesions in the next two outbreaks. Type of test: in vivo, human. The procedure:
Thirty patients are recruited meeting the following criteria:
In a screening interview, vital signs are recorded, and information is collected on any medications the patient is currently taking, previous and current treatments for cold sores, severity and duration of cold sores.
Upon entering the study, patients are sensitized to squaric acid dibutyl ester (SADBE) by dipping a cotton-tipped swab in a 2% solution of SADBE in DMSO and swabbing a 1 cm^2 area on the forearm. Participants are told then to wait at least 2 weeks for their first treatment.
Throughout the study, the participants are asked to maintain a subject diary, in which they record each day any symptoms they experience, including fever, swelling, pain, redness, itching, burning, the size of any lesions, and any medications taken.
After the 2-week period to allow development of sensitivity to SADBE, upon the beginning of his or her next outbreak (within 72 hours of the first signs of an outbreak), each participant is swabbed at the site of the herpes labialis lesion with a 0.5% solution of SADBE in DMSO.
Upon the next distinct outbreak at least 2 weeks after the previous treatment at visit 2, study diaries are collected. If the diary reflects redness, blistering, or burning greater than 0.5 cm beyond the clinical lesion with the previous SADBE treatment, the dosage of SADBE is decreased to 0.1%. […]

Test [3] has as its system peripheral blood mononuclear cells. Put plainly: PBMC proliferation assay with stimulation by heat inactivated KOS HSV-1 particles. The test is classed as cell-based, human. The following applies: after treatment compared with before treatment; killed KOS HSV-1 particles. An excerpt: At visit 1, before applying SADBE, a blood sample is collected from each patient for use in a peripheral blood mononuclear cell (PBMC) proliferation assay to test immune response to herpes virus.
Two months after visit 2 (the first treatment application of SADBE to an HSV lesion) if the patient has not experienced a recurrence outbreak after visit 2, or one month after visit 3 (the treatment application of SADBE to a lesion of a second outbreak), a blood sample is collected from the patient. The first, pretreatment, blood sample and the second, posttreatment, blood sample are used to conduct PBMC proliferation assays to test immune response to herpes virus before and after treatment.
Venous blood is collected in heparinized test tubes for mononuclear cell isolation prior to treatment and after treatment at the times described above. […]
KOS HSV-1 virus (American Type Culture Collection) is grown in culture in VERO cells and collected. […] The titer of the virus stock is determined. […]
Results are calculated by averaging optical density of the wells in each of the groups. A stimulation index is calculated to reflect the proliferation in the wells stimulated by killed HSV as compared to the positive and negative controls. The average optical absorbance of the positive controls is set as a stimulation index (SI) value of 100 and the average absorbance of the negative controls as a SI value of 0.

Test [4] is described as follows: Presensitization and dose finding: DNCB solution in acetone applied to spots on the forearm, DTH rash/erythema observed. The test is classed as in vivo, human. The following applies: for erythema on forearm: sensitized subject. An excerpt: The subject then applied a 0.1%, 0.2%, and 0.3% solutions to separate small spots on the forearm.
Test [5] has as its system herpes simplex virus type 1. Kind of test: Treatment of an individual with frequent and severe cold sores: DNCB solution applied at the site of the HSV lesion on the lower lip. The test is classed as in vivo, human. An excerpt: The individual treated was one of the inventors. They are a person and was […] at the time of this treatment. The subject suffered from frequent cold sores on the lower lip. The outbreaks typically lasted 7-10 days and frequently longer. The subject had suffered from frequent cold sores most of their life. During the 6 months prior to this treatment, the outbreaks had been almost continuous. After getting over one outbreak, the next outbreak would begin often within a week.
In the morning they washed it off. A mild erythema in the area of the cold sore developed over 2-3 days and lasted a further 5 days, and the cold sore resolved in about 7 days, which was a typical duration for this individual or a slightly shorter duration than normal. […] Each outbreak would begin and completely resolve in one day. […] We think this may be because the immune system was recognizing not just the DNCB but also the herpes virus antigens with this second application. With the greater inflammation, the cold sore outbreak was worse than any of the outbreaks between the first and second DNCB treatments. […] The outbreak seemed to worsen as the inflammation associated with the DTH response worsened, and only lessened when the DTH response subsided.
When the outbreak subsided, the subject went another 6 months without any outbreaks to the present time.
For several months before and for the entire time described herein after the initial DNCB treatment, the subject took no antiviral medicines.

Where [6] appears, read: first treatment, 0.2% DNCB on lower lip.
Setting [7] is: second treatment, 0.2% DNCB on lower lip.
Setting [8] is: third treatment, 0.1% DNCB solution.

As to interferon alpha, in test [1], the “fraction of patients responding to treatment compared with antigen alone” value is “larger fraction”.
For the compound “GM-CSF: granulocyte monocyte colony stimulating factor, cytokine used as immune response enhancer”, the “fraction of patients responding to treatment compared with antigen alone” value in test [1] is reported as “larger fraction”.
Consider `CCCCOc1c(OCCCC)c(=O)c1=O` [SADBE, squaric acid dibutyl ester], for which, in test [2], the “duration of outbreaks compared with before treatment” value is “last for less time” and the “number of outbreaks compared with before treatment” value is reported as “fewer outbreaks than before treatment”. For the same compound, in test [3], the “stimulation index of PBMC” value is recorded as “increased after treatment”.
In the case of `O=[N+]([O-])c1ccc(Cl)c([N+](=O)[O-])c1` [DNCB, 1-chloro-2,4-dinitrobenzene], the erythema on forearm entry in test [4] (0.1% DNCB solution) is recorded as “almost no erythema”. The erythema on forearm result in test [4] (0.2% DNCB solution) was “mild but easily seen erythema”. Besides, the “rash on forearm after presensitizing application” value in test [4] (2% DNCB in acetone, first application, two spots on forearm) is “No rash developed”. The “duration of rash on forearm” value in test [4] (2% DNCB, second application two weeks after sensitizing dose) turned out to be 3 weeks. Further, in test [4] (2% DNCB, two weeks after sensitizing dose, different spots on forearm), the “rash on forearm after second application” value is “very strong but localized rash”. Besides, the “severity and duration of subsequent outbreaks compared with before” value in test [5] (4 weeks after first treatment with 0.2% DNCB) was “much less severe and of much shorter duration than before”. Also, in test [5] (first treatment, 0.2% DNCB in acetone on lower lip, left on overnight), the “erythema in the area of the cold sore” value was “mild erythema”. Besides, in test [5] (setting [6]), the “further duration of erythema” value is listed as 5 days, the “time over which erythema developed” value was in the range of 2 to 3 days and the “time to resolution of the treated cold sore” value was “about 7 days”. Moreover, the time without outbreaks in test [5] (following second DNCB treatment at the site of a lesion) came to 6 months. The compound also showed a time without outbreaks in test [5] (following third treatment (0.1% DNCB), to the present time) of 6 months. Further, the “frequency of subsequent outbreaks” value in test [5] (next 4 weeks after first treatment with 0.2% DNCB) is “approximately weekly”. In test [5] (setting [7]), the “duration of the treated outbreak” value is “about 7 days” and the “severity of the treated outbreak” value was “as severe or even slightly more severe than a typical outbreak”. Besides, the “inflammation and erythema with the application” value in test [5] (second treatment, 0.2% DNCB on lower lip, about two months after the first) is “more severe than they had been with the first application”. Moreover, in test [5] (setting [8]), the “DTH response at the cold sore” value was “moderate DTH response” and the “duration of the treated outbreak” value is on record as “about 10 days”.
